From ChEMBL document CHEMBL1128591, “1,2-Diarylcyclopentenes as selective cyclooxygenase-2 inhibitors and orally active anti-inflammatory agents” (J Med Chem, 1995)

Experiments:
Rattus norvegicus [1] = species: Rattus norvegicus; assay: animal or person; conditions: read-out: Inhibition
[2] = target: Prostaglandin G/H synthase 1 (Homo sapiens, UniProt P23219)
Rattus norvegicus [3] = species: Rattus norvegicus; assay: animal or person; conditions: read-out: Inhibition; remark: listed apart in the source

Prostaglandin G/H synthase 1, sequence (P23219 whole entry): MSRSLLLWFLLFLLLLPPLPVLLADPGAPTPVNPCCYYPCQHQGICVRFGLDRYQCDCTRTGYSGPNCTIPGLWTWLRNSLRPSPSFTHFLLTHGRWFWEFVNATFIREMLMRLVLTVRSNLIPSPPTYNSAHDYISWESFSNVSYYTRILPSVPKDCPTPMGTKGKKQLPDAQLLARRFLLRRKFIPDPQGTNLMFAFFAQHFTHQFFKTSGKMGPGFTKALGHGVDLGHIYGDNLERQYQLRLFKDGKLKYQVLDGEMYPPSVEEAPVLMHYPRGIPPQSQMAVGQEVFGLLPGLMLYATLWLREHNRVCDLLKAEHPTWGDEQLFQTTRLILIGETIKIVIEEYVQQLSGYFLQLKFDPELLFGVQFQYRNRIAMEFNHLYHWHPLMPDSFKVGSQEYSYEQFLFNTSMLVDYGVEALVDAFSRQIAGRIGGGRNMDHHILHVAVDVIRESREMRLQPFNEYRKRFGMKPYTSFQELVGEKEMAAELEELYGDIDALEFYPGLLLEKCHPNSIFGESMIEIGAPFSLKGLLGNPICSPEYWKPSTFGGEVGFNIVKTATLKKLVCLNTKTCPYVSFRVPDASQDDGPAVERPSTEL

IC50 [2] | Compound | inhibition in vivo at 30 mg/kg (Rattus norvegicus [1]) | inhibition in vivo at 1 mg/kg (Rattus norvegicus [3])
5.1 µM | NS(=O)(=O)c1ccc(C2=C(c3ccc(F)c(Cl)c3)CCC2)cc1 | 43.3% | 81.5%
> 100 µM | COc1c(Cl)cc(C2=C(c3ccc(S(C)(=O)=O)cc3)CCC2)cc1Cl |  | 
> 100 µM | CS(=O)(=O)c1ccc(C2=C(c3ccc(F)c(C(F)(F)F)c3)CCC2)cc1 |  | 
> 100 µM | NS(=O)(=O)c1ccc(C2=C(c3cc(F)c(F)c(F)c3)CCC2)cc1 |  | 
> 100 µM | CS(=O)(=O)c1ccc(C2=C(c3ccc(C(F)(F)F)c(F)c3)CCC2)cc1 |  | 
> 10 µM | CS(=O)(=O)Nc1cc2c(cc1Sc1ccc(F)cc1F)C(=O)CC2 |  | 
> 100 µM | CS(=O)(=O)c1ccc(C2=C(c3cc(F)c(F)c(F)c3)CCC2)cc1 |  | 

Second part, the compound before the results:

Compound | IC50 [2] | inhibition in vivo at 30 mg/kg (Rattus norvegicus [1]) | inhibition in vivo at 1 mg/kg (Rattus norvegicus [3])
CS(=O)(=O)c1ccc(C2=C(c3ccc(F)c(Cl)c3)CCC2)cc1 |  | 40% | 
CS(=O)(=O)c1ccc(C2=C(c3ccc(Cl)cc3)CCC2)cc1 |  | 49% | 21%
NS(=O)(=O)c1ccc(C2=C(c3ccc(Cl)c(Cl)c3)CCC2)cc1 |  | 31% | 83%
NS(=O)(=O)c1ccc(C2=C(c3ccc(C(F)(F)F)c(F)c3)CCC2)cc1 | 14.5 µM |  | 
COc1ccc(C2=C(c3ccc(S(N)(=O)=O)cc3)CCC2)cc1Cl |  | 32% | 25%
CS(=O)(=O)c1ccc(C2=C(c3ccc(F)cc3)CCC2)cc1 [SC-57666] |  | 45.3% | 29.3%
CS(=O)(=O)c1ccc(C2=C(c3ccc(Cl)c(Cl)c3)CCC2)cc1 |  |  | 45%
NS(=O)(=O)c1ccc(C2=C(c3ccc(F)cc3)CCC2)cc1 |  | 45.3% | 79%
NS(=O)(=O)c1ccc(C2=C(c3ccc4c(c3)OCO4)CCC2)cc1 | 1.9 µM |  | 
COc1ccc(C2=C(c3ccc(S(N)(=O)=O)cc3)CCC2)cc1 |  | 10% | 
CN(C)c1ccc(C2=C(c3ccc(S(N)(=O)=O)cc3)CCC2)cc1Cl | 1.8 µM |  | 
COc1ccc(C2=C(c3ccc(S(C)(=O)=O)cc3)CCC2)cc1 |  | 42.7% | 0%
CN(C)c1ccc(C2=C(c3ccc(S(C)(=O)=O)cc3)CCC2)cc1Cl | 37.7 µM |  | 
COc1ccc(C2=C(c3ccc(S(N)(=O)=O)cc3)CCC2)cc1F |  |  | 25%
COc1c(Cl)cc(C2=C(c3ccc(S(N)(=O)=O)cc3)CCC2)cc1Cl | 71.6 µM |  | 
